Entries after “also recorded” stand apart in the source; their conditions may differ.
Assays:
PTP4A1 = PTP4A1 (Homo sapiens, UniProt Q93096); experiment: PTP4A1 phosphatase activity assay with DiFMUP; format: biochemical; conditions: DiFMUP substrate
PTPN7 (HePTP) = PTPN7 (HePTP) (Homo sapiens, UniProt P35236); experiment: Phosphatase specificity profiling (PhosphataseProfiler); format: biochemical; conditions: 10 µM DiFMUP, commercial vendor, N=2, read-out: % Activity (Mean ± SD) PTPN7 (HePTP)
LMPTP-B = LMPTP-B (Homo sapiens, UniProt P24666); experiment: as above; format: biochemical; conditions: 10 µM DiFMUP, commercial vendor, N=2, read-out: % Activity (Mean ± SD) LMPTP-B
Chain of LMPTP-B (P24666 1-158 isoform P24666-2): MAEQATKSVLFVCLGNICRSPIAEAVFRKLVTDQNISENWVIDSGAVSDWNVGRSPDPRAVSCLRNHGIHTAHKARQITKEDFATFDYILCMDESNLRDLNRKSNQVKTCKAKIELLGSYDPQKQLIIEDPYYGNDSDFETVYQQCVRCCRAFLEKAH

PTPRB (PTPβ) = PTPRB (PTPβ) (Homo sapiens, UniProt P23467); experiment: as above; format: biochemical; conditions: 10 µM DiFMUP, commercial vendor, N=2, read-out: % Activity (Mean ± SD) PTPRB (PTPβ)
Chain of PTPRB (PTPβ) (P23467 23-1997): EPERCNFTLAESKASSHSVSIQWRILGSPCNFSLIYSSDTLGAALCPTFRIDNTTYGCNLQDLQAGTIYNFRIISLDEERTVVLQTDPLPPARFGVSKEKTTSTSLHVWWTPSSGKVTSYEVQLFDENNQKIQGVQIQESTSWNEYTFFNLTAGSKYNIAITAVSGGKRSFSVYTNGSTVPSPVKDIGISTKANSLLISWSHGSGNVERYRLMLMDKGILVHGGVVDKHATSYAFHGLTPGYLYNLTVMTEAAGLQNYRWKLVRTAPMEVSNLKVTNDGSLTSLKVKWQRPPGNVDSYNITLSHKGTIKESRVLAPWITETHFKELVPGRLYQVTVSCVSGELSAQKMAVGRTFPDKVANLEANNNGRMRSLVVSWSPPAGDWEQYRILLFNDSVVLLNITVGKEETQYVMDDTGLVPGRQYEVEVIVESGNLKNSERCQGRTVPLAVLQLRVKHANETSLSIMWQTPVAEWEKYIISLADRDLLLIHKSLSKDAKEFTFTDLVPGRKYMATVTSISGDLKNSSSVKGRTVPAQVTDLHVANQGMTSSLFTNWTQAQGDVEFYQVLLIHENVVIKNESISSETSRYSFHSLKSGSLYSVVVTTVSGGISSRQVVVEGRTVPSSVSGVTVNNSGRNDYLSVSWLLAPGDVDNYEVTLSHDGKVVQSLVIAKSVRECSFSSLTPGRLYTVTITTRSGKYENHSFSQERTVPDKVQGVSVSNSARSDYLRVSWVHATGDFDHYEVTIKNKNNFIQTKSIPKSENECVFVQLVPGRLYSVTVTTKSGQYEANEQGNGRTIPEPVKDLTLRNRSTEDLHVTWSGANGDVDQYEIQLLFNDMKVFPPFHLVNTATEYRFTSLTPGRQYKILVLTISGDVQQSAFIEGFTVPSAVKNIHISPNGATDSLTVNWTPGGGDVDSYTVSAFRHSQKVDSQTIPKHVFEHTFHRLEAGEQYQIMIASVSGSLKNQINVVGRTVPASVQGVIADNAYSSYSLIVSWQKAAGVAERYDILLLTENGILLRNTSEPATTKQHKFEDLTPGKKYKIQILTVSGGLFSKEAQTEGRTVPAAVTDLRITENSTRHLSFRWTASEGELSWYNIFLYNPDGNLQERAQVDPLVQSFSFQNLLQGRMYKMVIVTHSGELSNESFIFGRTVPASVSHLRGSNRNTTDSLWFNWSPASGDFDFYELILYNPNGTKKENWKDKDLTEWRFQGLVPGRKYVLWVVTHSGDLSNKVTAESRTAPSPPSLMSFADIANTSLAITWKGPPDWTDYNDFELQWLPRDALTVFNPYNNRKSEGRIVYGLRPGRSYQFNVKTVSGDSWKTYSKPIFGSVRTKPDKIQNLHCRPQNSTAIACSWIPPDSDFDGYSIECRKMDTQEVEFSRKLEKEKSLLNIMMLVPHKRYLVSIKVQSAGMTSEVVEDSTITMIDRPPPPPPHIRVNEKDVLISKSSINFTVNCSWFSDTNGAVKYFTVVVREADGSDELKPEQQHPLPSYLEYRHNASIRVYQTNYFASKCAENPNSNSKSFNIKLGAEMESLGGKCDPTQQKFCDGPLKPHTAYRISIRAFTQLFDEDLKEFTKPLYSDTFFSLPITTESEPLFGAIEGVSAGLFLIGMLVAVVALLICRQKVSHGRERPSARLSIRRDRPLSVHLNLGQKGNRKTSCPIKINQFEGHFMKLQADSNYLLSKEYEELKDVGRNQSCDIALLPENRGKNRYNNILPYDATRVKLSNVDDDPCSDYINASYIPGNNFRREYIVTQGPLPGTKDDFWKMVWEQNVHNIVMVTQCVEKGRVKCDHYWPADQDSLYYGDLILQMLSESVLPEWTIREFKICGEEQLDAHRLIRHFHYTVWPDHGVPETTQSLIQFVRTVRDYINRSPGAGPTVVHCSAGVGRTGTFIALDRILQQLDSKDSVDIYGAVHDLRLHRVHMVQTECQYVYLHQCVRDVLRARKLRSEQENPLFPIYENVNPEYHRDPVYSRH

DUSP13 (TMDP) = DUSP13 (TMDP) (Homo sapiens, UniProt Q9UII6); experiment: as above; format: biochemical; conditions: 10 µM DiFMUP, commercial vendor, N=2, read-out: % Activity (Mean ± SD) DUSP13 (TMDP)
Chain of DUSP13 (TMDP) (Q9UII6 whole entry): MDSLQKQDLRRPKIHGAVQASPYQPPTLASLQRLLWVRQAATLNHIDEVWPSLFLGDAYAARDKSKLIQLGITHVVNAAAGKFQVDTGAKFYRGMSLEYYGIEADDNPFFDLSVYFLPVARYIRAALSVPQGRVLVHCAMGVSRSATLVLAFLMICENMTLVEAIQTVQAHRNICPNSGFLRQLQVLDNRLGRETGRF

Lambda PP (Phage) = biological target: T1, Lambda PP (Phage) (Escherichia phage lambda, UniProt P03772); experiment: as above; format: biochemical; conditions: 10 µM DiFMUP, commercial vendor, N=2, read-out: % Activity (Mean ± SD) Lambda PP (Phage)
T1 construct: purchased Eurofins (Dundee, Scotland, UK), PhosphataseProfiler
T1 sequence (P03772 whole entry): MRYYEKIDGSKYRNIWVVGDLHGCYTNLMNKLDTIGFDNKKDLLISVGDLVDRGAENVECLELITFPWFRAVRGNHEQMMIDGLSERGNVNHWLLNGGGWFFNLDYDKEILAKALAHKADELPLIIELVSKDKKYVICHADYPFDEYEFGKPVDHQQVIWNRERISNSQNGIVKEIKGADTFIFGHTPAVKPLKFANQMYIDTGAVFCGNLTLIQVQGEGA

p38α = biological target: T2, p38α (Homo sapiens, UniProt Q16539); experiment: Kinase profiling (KinaseSeeker); format: biochemical; conditions: 1 µM screening concentration
T2 construct: purchased Luceome Biotechnologies (Tucson, AZ), KinaseSeeker
T2 sequence (Q16539 whole entry): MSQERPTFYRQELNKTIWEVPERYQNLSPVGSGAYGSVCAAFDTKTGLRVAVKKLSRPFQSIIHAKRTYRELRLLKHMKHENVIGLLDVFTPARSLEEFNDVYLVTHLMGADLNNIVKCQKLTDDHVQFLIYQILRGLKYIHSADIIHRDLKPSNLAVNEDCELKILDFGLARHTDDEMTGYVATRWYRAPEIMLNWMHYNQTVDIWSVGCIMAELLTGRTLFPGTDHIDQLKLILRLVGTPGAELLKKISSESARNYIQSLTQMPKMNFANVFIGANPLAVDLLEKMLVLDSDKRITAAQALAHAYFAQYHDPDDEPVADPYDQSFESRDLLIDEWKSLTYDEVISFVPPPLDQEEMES

[1] = test system: primary human lung microvascular endothelial cells (MVEC); experiment: Endothelial barrier function (TEER, ECIS) after VEGF challenge; format: cell-based; conditions: 5 µM
[2] = test system: primary human lung microvascular endothelial cells (MVEC); experiment: Endothelial barrier function (TEER, ECIS) after LPS challenge; format: cell-based
[3] = test system: RhoA activation in human MVEC; experiment: RhoA activation pull-down assay in MVEC after LPS; format: cell-based; conditions: 5 µM pretreatment 24 h, LPS 0.5 EU/mL 1 h
[4] = test system: Rac1 activation in human MVEC; experiment: Rac1 activation assay in MVEC after LPS; format: cell-based; conditions: 5 µM pretreatment 24 h, LPS 0.5 EU/mL 1 h
A2780CP20 = experiment: 2D monolayer viability assay (CellTiter Blue); format: cell-based; conditions: Homo sapiens; 48 h, Mean ± SD, N=3
A2780 = experiment: 2D monolayer viability assay (CellTiter Blue); format: cell-based; conditions: Homo sapiens, A2780; 48 h, Mean ± SD, N=3; read-out: Monolayer (IC50 µM) A2780
HEYA8-MDR = experiment: 2D monolayer viability assay (CellTiter Blue); format: cell-based; conditions: Homo sapiens, 48 h, Mean ± SD, N=3
HEYA8 = experiment: 2D monolayer viability assay (CellTiter Blue); format: cell-based; conditions: Homo sapiens, HEY A8; 48 h, Mean ± SD, N=3
OVCAR4 = experiment: 2D monolayer viability assay (CellTiter Blue); format: cell-based; conditions: Homo sapiens, OVCAR-4; 48 h, Mean ± SD, N=3
SKOV3IP1 = experiment: 2D monolayer viability assay (CellTiter Blue); format: cell-based; conditions: Homo sapiens; 48 h, Mean ± SD, N=3
SKOV3TRIP2 = experiment: 2D monolayer viability assay (CellTiter Blue); format: cell-based; conditions: Homo sapiens; 48 h, Mean ± SD, N=3
SKOV3 = experiment: 2D monolayer viability assay (CellTiter Blue); format: cell-based; conditions: Homo sapiens, SK-OV-3; 48 h, Mean ± SD, N=3
IMR90 fibroblasts = experiment: 2D monolayer viability assay (CellTiter Blue); format: cell-based; conditions: Homo sapiens, IMR-90; 48 h, N=3
OvCa cell lines = experiment: 2D monolayer viability assay, across the panel; format: cell-based, human; conditions: Homo sapiens, 48 h, read-out: no significant growth inhibition of any of the OvCa cell lines at concentrations as high as
HeyA8 spheroids = experiment: Spheroid viability and growth assay; format: cell-based, human
A2780 spheroids = experiment: Spheroid viability assay (CellTiterGlo 3D); format: cell-based; conditions: Homo sapiens, 48 h, Mean ± SD, N=3
A2780CP20 spheroids = experiment: Spheroid viability assay (CellTiterGlo 3D); format: cell-based; conditions: Homo sapiens; 48 h, Mean ± SD, N=3
COV362 spheroids = experiment: Spheroid viability assay (CellTiterGlo 3D); format: cell-based; conditions: Homo sapiens, 48 h, Mean ± SD, N=3
HeyA8-MDR spheroids = experiment: Spheroid viability assay (CellTiterGlo 3D); format: cell-based; conditions: Homo sapiens, 48 h, Mean ± SD, N=3
OVCAR4 spheroids = experiment: Spheroid viability assay (CellTiterGlo 3D); format: cell-based; conditions: Homo sapiens, OVCAR-4; 48 h, Mean ± SD, N=3
SKOV3 spheroids = experiment: Spheroid viability assay (CellTiterGlo 3D); format: cell-based; conditions: Homo sapiens, SK-OV-3; 48 h, Mean ± SD, N=3
SKOV3IP1 spheroids = experiment: Spheroid viability assay (CellTiterGlo 3D); format: cell-based; conditions: Homo sapiens; 48 h, Mean ± SD, N=3
SKOV3TRIP2 spheroids = experiment: Spheroid viability assay (CellTiterGlo 3D); format: cell-based; conditions: Homo sapiens; 48 h, Mean ± SD, N=3
[5] = test system: normal human ovarian HI0-180 epithelial cells; experiment: Spheroid viability assay (CellTiterGlo 3D); format: cell-based; conditions: Epithelial cell, 48 h
OvCa cell line spheroids = experiment: Spheroid viability assay, across the panel; format: cell-based; conditions: Homo sapiens; 48 h exposure; read-out: no effects on spheroids in any cell lines at concentrations up to
HeyA8 cells = experiment: Scratch wound migration assay; format: cell-based, human; conditions: measured 14 h after scratch
[6] = test system: RhoA activation in HeyA8 cells; experiment: RhoA G-LISA activation assay; format: cell-based, human; conditions: HeyA8, 1 µM
PTP4A3 protein [7] = biological target: T3, PTP4A3 protein (Homo sapiens, UniProt O75365); experiment: Thermal shift assay with SYPRO orange; format: binding; parameters: made in house; conditions: 100 µM compound, 16 μM protein
T3 sequence (O75365 whole entry): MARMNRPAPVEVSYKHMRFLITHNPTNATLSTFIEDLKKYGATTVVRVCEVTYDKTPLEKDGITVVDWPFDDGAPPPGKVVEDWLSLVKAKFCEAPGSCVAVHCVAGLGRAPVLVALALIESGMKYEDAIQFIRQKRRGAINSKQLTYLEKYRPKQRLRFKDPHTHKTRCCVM

PTP4A3 protein [8] = biological target: T3, PTP4A3 protein; experiment: PTP4A3 phosphatase activity assay with DiFMUP substrate; format: biochemical; parameters: using a full-length recombinant human PTP4A3 and DiFMUP as the substrate; His6; made in house; conditions: full-length recombinant human PTP4A3, DiFMUP substrate; read-out: PTP4A3 inhibition, inactive at concentrations as high as

Chain of PTP4A1 (Q93096 whole entry): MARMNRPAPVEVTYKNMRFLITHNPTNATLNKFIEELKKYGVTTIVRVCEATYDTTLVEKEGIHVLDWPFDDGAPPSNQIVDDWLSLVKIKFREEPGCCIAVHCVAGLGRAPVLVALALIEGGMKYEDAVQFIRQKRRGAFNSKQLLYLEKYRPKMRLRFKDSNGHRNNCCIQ
Chain of PTPN7 (HePTP) (P35236 whole entry): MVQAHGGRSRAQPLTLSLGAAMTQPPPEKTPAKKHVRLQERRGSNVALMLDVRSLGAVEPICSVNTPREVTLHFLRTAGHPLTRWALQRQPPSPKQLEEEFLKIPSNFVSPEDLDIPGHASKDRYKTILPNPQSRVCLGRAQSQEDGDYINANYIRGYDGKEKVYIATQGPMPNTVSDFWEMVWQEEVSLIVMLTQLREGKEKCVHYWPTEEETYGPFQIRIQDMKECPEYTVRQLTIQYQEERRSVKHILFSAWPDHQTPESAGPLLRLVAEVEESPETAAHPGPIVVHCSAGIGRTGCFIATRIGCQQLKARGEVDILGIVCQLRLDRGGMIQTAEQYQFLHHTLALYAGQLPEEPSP

SMILES: N=C1C(=O)NC(=O)c2cc(-c3ccccc3)sc21 [JMS-053]
- activity at 1 µM (PTP4A1; 1 µM, in-house assay, N=2, read-out: % Activity (Mean ± SD) PTP4A1): 1%
- IC50 (PTP4A1): 0.05 ± 0.014 µM
- activity at 1 µM (PTPN7 (HePTP)): 97 ± 3%
- activity at 1 µM (LMPTP-B): 99%
- activity at 1 µM (PTPRB (PTPβ)): 95 ± 5%
- activity at 1 µM (DUSP13 (TMDP)): 95 ± 1%
- activity at 1 µM (Lambda PP (Phage)): 72 ± 3%
- inhibition of p38α (p38α): ~50%
- TEER after VEGF, pretreatment ([1]; 2 h before VEGF 100 ng/mL then continuous exposure): normalized
- TEER after VEGF, post-treatment ([1]; 3 h after VEGF 100 ng/mL): normalized endothelial barrier function
- TEER after LPS, pretreatment ([2]; 5 µM, 24 h prior to LPS 0.5 EU/mL): prevented LPS-induced disruption of the endothelial barrier function
- TEER after LPS, post-treatment ([2]; treatment 3 h after LPS exposure): no observed mitigation
- LPS-mediated RhoA activation [3]: blocked
- LPS-mediated reduction in Rac1 activation [4]: blocked

SMILES: Nc1c[nH]c(=O)c2cc(-c3ccccc3)sc12 [thienopyridone, reference compound]
- IC50 (A2780CP20): 13.1 ± 6 µM
- IC50 (A2780): 4.5 ± 0.6 µM
- IC50 (HEYA8-MDR): > 50 µM
- IC50 (HEYA8): 47 ± 4.9 µM
- IC50 (OVCAR4): 15.5 ± 2.4 µM
- IC50 (SKOV3IP1): 31.3 ± 8.5 µM
- IC50 (SKOV3TRIP2): > 50 µM
- IC50 (SKOV3): 28.8 ± 2.2 µM

SMILES: O=c1[nH]c(=O)c2cc(-c3ccccc3)sc2[nH]1 [JMS-038]
- IC50 (A2780CP20): > 50 µM
- IC50 (A2780): > 50 µM
- IC50 (HEYA8-MDR): > 50 µM
- IC50 (HEYA8): > 50 µM
- IC50 (IMR90 fibroblasts): > 50 µM
- IC50 (OVCAR4): > 50 µM
- IC50 (SKOV3IP1): > 50 µM
- IC50 (SKOV3TRIP2): > 50 µM
- IC50 (SKOV3): > 50 µM
- IC50 (OvCa cell lines): > 50 µM
- IC50 (HeyA8 spheroids; Homo sapiens, HEY A8, 48 h, Mean ± SD, N=3): > 50 µM
- HeyA8 cell spheroid growth (images) (HeyA8 spheroids; images 48 h after plating and 24 h after compound addition): but not JMS-038 inhibited HeyA8 cell spheroid growth
- IC50 (A2780 spheroids): > 50 µM
- IC50 (A2780CP20 spheroids): > 50 µM
- IC50 (COV362 spheroids): > 50 µM
- IC50 (HeyA8-MDR spheroids): > 50 µM
- IC50 (OVCAR4 spheroids): > 50 µM
- IC50 (SKOV3 spheroids): > 50 µM
- IC50 (SKOV3IP1 spheroids): > 50 µM
- IC50 (SKOV3TRIP2 spheroids): > 50 µM
- IC50 [5]: > 25 µM
- IC50 (OvCa cell line spheroids): > 50 µM
- migration of HeyA8 cells after wounding (HeyA8 cells): but not JMS-038 blocked the migration
- effect on RhoA activation compared to DMSO vehicle control [6]: no significant effect
- ∆Tm of PTP4A3 (destabilizing thermal shift) (PTP4A3 protein [7]): no significant thermal shift; also recorded: no effect
- IC50 (PTP4A3 protein [8]): > 100 µM

— publication PMC5823565, “Targeting ovarian cancer and endothelium with an allosteric PTP4A3 phosphatase inhibitor” (Oncotarget, 2017)
